Reference: patent US11331364B2, “Use for JNK inhibitor molecules for treatment of various diseases” (Xigen Inflammation Ltd., priority 2014, dated 2022)
Square brackets hold non-standard residues; d marks the D form. Peptide text beside a SMILES is read from it.

Assays:
healthy male volunteers = test: Phase I safety and tolerability of single and repeated instillations; format: in vivo, human
Protocol: XG-104 was prepared as solution for instillations (in NaCl 0.9%). NaCl 0.9% served as placebo. A total of 49 subjects were included in this study, 28 in the “Single dose part” of this study and 21 in the “Multiple dose part” of this study. In the single dose part, the 28 subjects included were randomised between one of the 5 groups: 5 subjects in each of the 4 XG-104 groups (0.1 mg, 0.2 mg, 0.4 mg, 0.8 mg) (0.2, 0.4, 0.8 and 1.6%, respectively) and 8 subjects in the placebo group. In the multiple dose part, the 21 subjects included were randomised between one of the 4 groups: 5 subjects in each of the 3 XG-104 groups (0.1 mg, 0.2 mg, 0.4 mg) and 6 subjects in the placebo group. All subjects completed the study.
In the “Single dose part” of this study, single topical doses of 0.1, 0.2, 0.4 and 0.8 mg (0.2, 0.4, 0.8 and 1.6%, respectively) of XG-104 were tested. A single administration of XG-104 or placebo was performed on day 1 (D1) (one drop in the right eye). In the single dose part, subjects were hospitalized for approximately 36 h, namely from day −1 (D−1) evening to D2 morning. On day 3 an ambulatory visit was performed and the study ended with a visit at D4.
In the “Multiple dose part” of this study, three dose levels were tested. Doses were chosen according to the results of the single dose part as follows: first group: 0.1 mg (0.2%), second group: 0.2 mg (0.4%), and third group: 0.4 mg (0.8%). XG-104 or placebo was administered tid (“ter in die”—three times daily), each time 1 drop in the right eye, from D1 to D21. The administration took place at around 8 a.m., 12 a.m. and 8 p.m. In the multiple dose part, subjects were hospitalized from D−1 evening to D22 morning, whereby the end of the study was a visit at D36 (±2). For more flexibility, subjects had the possibility to perform some visits in ambulatory. In that case visits were the following: hospitalization for approximately 36 h, D−1 evening to D2 morning, ambulatory visits from D2 to D7, hospitalization for approximately 36 h, D7 evening to D9 morning, ambulatory visits from D9 to D14, hospitalization for approximately 36 h, D14 evening to D16 morning, ambulatory visits from D16 to D20, and hospitalization for approximately 36 h, D20 evening to D22 morning. The end of the study was a visit at D36 (±2), accordingly.
The safety parameters evaluated included: physical examination; vital signs (BP, PR); 12-lead ECG (electrocardiogram); fundus of the eye, intraocular pressure, slit lamp examination, best-corrected visual acuity, redness; Schirmer's tear test, TBUT (tear film break-up time); clinical laboratory tests (haematology, haemostasis, clinical chemistry and urinalysis); adverse events; and assessment of tolerability.

[1] = tested on: acute CYP-induced cystitis in female Sprague-Dawley rats; test: Cyclophosphamide-induced acute cystitis, intravesical treatment, visceral pain and bladder inflammation; format: in vivo, rat; conditions: 50 mg/mL, i.ves.; 24 h after CYP
Protocol: This preclinical model is well-used to test therapeutic approaches for the treatment of interstitial cystitis/painful bladder syndrome (IC/PBS).
Animals were acclimatized to the laboratory conditions for at least 3 days before the start of any experiments. The animals were allocated to the following four experimental groups (n=10 animals per group):
To induce acute cystitis, a single i.p. injection of CYP at a dose of 150 mg/kg in a final volume of 5 mL/kg was performed. Control rats received physiological saline under the same experimental conditions as CYP (final volume of 5 mL/kg, i.p.).
On the day of each experiment, weight of rats was recorded.
Standardized conditions including fixed time-of-day (a.m. to minimize the potential circadian variations in the behaviours responses) and single-experimenter testing of all animals were applied to minimize variability behavior-based pain testing. Visceral pain including allodynia and hyperalgesia was evaluated by applying to the lower abdomen, close to the urinary bladder, a set of 8 calibrated von Frey filaments of increasing forces (1, 2, 4, 6, 8, 10, 26 and 60 g) with an interstimulus interval of 5 seconds. Prior testing, the abdominal area designed for mechanical stimulation of each animal was shaved. Animals were then placed on a raised wire mesh floor under individual transparent Plexiglas box and acclimatized for at least 30 minutes before starting the von Frey test. Filaments were then applied 1-2 seconds through the mesh floor with enough strength to cause the filament to slightly bend. Each filament was tested 3 times. Care was taken to stimulate different areas within the lower abdominal region in the vicinity of the urinary bladder to avoid desensitization.
Nociceptive behaviors were scored for each animal and each filament as follows:
The study design is schematically shown in FIG. 50 A. Birefly, acute cystitis was induced by CYP injection (i.p.) at Do (as described above).
Urinary bladders were rapidly collected and cleaned from lipoid tissue. Urinary bladders were weighed, cut at the bladder neck as well as oedema and haemorrhage scoring was performed (see table below). Finally, wall thickness was measured using a digital caliper by placing the bladder wall between the two outside jaws.

[2] = multiple dose 0.1 mg (0.2%) tid
[3] = multiple dose 0.2 mg (0.4%) tid
[4] = multiple dose 0.4 mg (0.8%) tid

CC(C)C[C@H](NC(=O)[C@H](CC(N)=O)NC(=O)[C@H](CC(C)C)NC(=O)[C@@H](NC(=O)[C@@H](C)NC(=O)[C@@H]1CCCN1C(=O)[C@H](CCCNC(=N)N)NC(=O)[C@@H](CCCCN)NC(=O)[C@@H]1CCCN1C(=O)[C@H](CCCNC(=N)N)NC(=O)[C@@H](CCCNC(=N)N)NC(=O)[C@H](CCCNC(=N)N)NC(=O)[C@H](CCCNC(=N)N)NC(=O)[C@H](CCC(N)=O)NC(=O)[C@@H](CCCNC(=N)N)NC(=O)[C@H](CCCNC(=N)N)NC(=O)[C@H](CCCCN)NC(=O)[C@H](CCCCN)NC(=O)[C@H](N)CCCNC(=N)N)[C@@H](C)O)C(=O)N[C@H](Cc1ccccc1)C(N)=O [SEQ ID NO: 172, rKKRrQRRrRPkRPaTLNLf] (H-[dR]KKR[dR]QRR[dR]RP[dK]RP[dA]TLNL[dF]-NH2; N-terminus assumed)
conjunctival hyperaemia, left eye, unlikely related (number) (healthy male volunteers; [2]): 2
conjunctival hyperaemia, right eye, unlikely related (number) (healthy male volunteers; [2]): 6
conjunctivas, right eye, probably related (number) (healthy male volunteers; [2]): 2
punctate keratitis, left eye, unlikely related (number) (healthy male volunteers; [2]): 2
punctate keratitis, left eye, unrelated (number) (healthy male volunteers; [2]): 1
punctate keratitis, right eye, unlikely related (number) (healthy male volunteers; [2]): 6
conjunctival hyperaemia, left eye, unlikely related (number) (healthy male volunteers; [3]): 3
conjunctival hyperaemia, right eye, unlikely related (number) (healthy male volunteers; [3]): 5
eyelid irritation, right eye, probably related (number) (healthy male volunteers; [3]): 1
punctate keratitis, left eye, unlikely related (number) (healthy male volunteers; [3]): 1
punctate keratitis, left eye, unrelated (number) (healthy male volunteers; [3]): 4
punctate keratitis, right eye, unlikely related (number) (healthy male volunteers; [3]): 6
punctate keratitis, right eye, unrelated (number) (healthy male volunteers; [3]): 1
conjunctival hyperaemia, left eye, unlikely related (number) (healthy male volunteers; [4]): 2
conjunctival hyperaemia, right eye, unlikely related (number) (healthy male volunteers; [4]): 10
conjunctivitis, right eye, unlikely related (number) (healthy male volunteers; [4]): 1
punctate keratitis, left eye, unlikely related (number) (healthy male volunteers; [4]): 2
punctate keratitis, right eye, unlikely related (number) (healthy male volunteers; [4]): 5
clinical examination, biological parameters, vital signs or ECG parameters (healthy male volunteers; multiple dose part): No clinically relevant findings
intensity of TEAEs (healthy male volunteers; multiple dose part): mild to moderate
serious adverse events (healthy male volunteers; multiple dose part): No serious adverse events
TEAEs experienced after XG-104 administration (number) (healthy male volunteers; multiple dose part, tid D1 to D21, 0.1-0.4 mg): 61
tolerability (healthy male volunteers; repeated dose t.i.d. 0.1 mg, 0.2 mg, 0.4 mg): well tolerated
eye pruritus, right eye, unrelated (number) (healthy male volunteers; single dose 0.1 mg (0.2%)): 1
punctate keratitis, right eye, unrelated (number) (healthy male volunteers; single dose 0.1 mg (0.2%)): 2
tolerability (healthy male volunteers; single dose 0.1 mg, 0.2 mg, 0.4 mg): well tolerated
conjunctival hyperaemia, right eye, unrelated (number) (healthy male volunteers; single dose 0.2 mg (0.4%)): 1
punctate keratitis, right eye, unrelated (number) (healthy male volunteers; single dose 0.2 mg (0.4%)): 2
punctate keratitis, right eye, unrelated (number) (healthy male volunteers; single dose 0.4 mg (0.8%)): 2
TEAEs right eye probably related to study drug (number) (healthy male volunteers; single dose 0.8 mg (1.6%)): 3
conjunctival hyperaemia, right eye, probably related (number) (healthy male volunteers; single dose 0.8 mg (1.6%)): 1
conjunctivitis, right eye, probably related (number) (healthy male volunteers; single dose 0.8 mg (1.6%)): 2
punctate keratitis, right eye, unrelated (number) (healthy male volunteers; single dose 0.8 mg (1.6%)): 1
tolerability (healthy male volunteers; single dose 0.8 mg (1.6%)): rather well tolerated
clinical examination, vital signs or ECG parameters (healthy male volunteers; single dose part): No clinically relevant findings
intensity of TEAEs (healthy male volunteers; single dose part): mild
serious adverse events (healthy male volunteers; single dose part): No serious adverse events
TEAEs experienced after XG-104 administration (number) (healthy male volunteers; single dose part, 0.1-0.8 mg, one drop right eye): 21
AUC 1-8 g (allodynia) vs vehicle [1]: significantly decreased
AUC 8-60 g (hyperalgesia) vs vehicle [1]: reduced
haemorrhage scores vs vehicle [1]: no significant change
nociceptive scores vs vehicle [1]: significantly decreased
nociceptive threshold vs vehicle [1]: significantly increased
oedema scores vs vehicle [1]: significant decrease
urinary bladder wall thickness vs vehicle [1]: significantly decreased
